In EP4603105A1, “PHARMACEUTICAL COMPOSITION CONTAINING CYCLIC COMPOUND HAVING SELECTIVE KRAS INHIBITORY EFFECT AGAINST HRAS AND NRAS” (CHUGAI SEIYAKU KABUSHIKI KAISHA, priority 2022, dated 2024):
Like-named read-outs stand apart in the source and are kept apart here.

Columns and labels:
[1] = target: GDP-bound KRAS wild-type protein (Homo sapiens, UniProt P01116); experiment: Binding to KRAS by surface plasmon resonance (SPR), dissociation constant KD
How it was run: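 Affinity is measured by surface plasmon resonance at 30°C against captured, GDP-loaded RAS carrying a biotinylated Avi tag. Compounds are titrated by single-cycle kinetics, and KD comes from a 1:1 fit.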

[2] = system: human lung cancer strain NCI-H441; experiment: NCI-H441 cell proliferation inhibitory activity (CellTiter-Glo, 4 days); type: cell-based; conditions: read-out: NCl-H441 IC50
How it was run: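 Signal came from […] measured per well once the reagent was added. Beforehand, cells were cultured at 37°C and 5% carbon dioxide on a compound series serially diluted in dimethyl sulfoxide.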

[3] = target: GDP-bound NRAS wild-type protein (Homo sapiens, UniProt P01111); experiment: Binding to NRAS by surface plasmon resonance (SPR), KD and KD ratio to KRAS
GDP-bound NRAS wild-type protein, sequence (P01111 whole entry): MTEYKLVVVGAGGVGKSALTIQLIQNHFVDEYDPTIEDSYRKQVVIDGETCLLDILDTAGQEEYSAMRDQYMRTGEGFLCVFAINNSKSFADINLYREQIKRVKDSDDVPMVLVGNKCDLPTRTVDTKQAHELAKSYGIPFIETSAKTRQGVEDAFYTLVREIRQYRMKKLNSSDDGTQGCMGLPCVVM
How it was run: (§1)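 Each cycle, GDP-bound biotin-Avi RAS was captured (~100–300 RU), compound concentrations were injected low to high for 75 s each at 100 µL/min, then the chip was regenerated. Buffer: HBS pH 7.4, 10 mM MgCl2, 10 µM GDP, 1 mM DTT, 4% DMSO; 30°C. KD from a 1:1 binding model.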

HRAS wild-type protein = HRAS wild-type protein (Homo sapiens, UniProt P01112); experiment: Binding to HRAS by surface plasmon resonance (SPR), KD and KD ratio to KRAS
HRAS wild-type protein, sequence (P01112 whole entry): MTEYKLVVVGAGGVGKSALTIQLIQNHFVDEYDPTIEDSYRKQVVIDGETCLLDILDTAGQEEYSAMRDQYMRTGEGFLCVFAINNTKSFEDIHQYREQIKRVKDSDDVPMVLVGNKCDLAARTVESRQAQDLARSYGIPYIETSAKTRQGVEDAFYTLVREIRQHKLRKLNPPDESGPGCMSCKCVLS
How it was run: as §1

[4] = ratio of KD for GDP-bound NRAS wild-type protein to KD for KRAS
[5] = ratio of KD for HRAS wild-type protein to KD for KRAS
[6] = Single Cycle Kinetics, 1:1 binding model
[7] = 50% proliferation inhibitory concentration, four days
[8] = ratio of KD with respect to GDP-bound NRAS wild-type protein to KD with respect to KRAS
[9] = ratio of KD with respect to HRAS wild-type protein to KD with respect to KRAS

GDP-bound KRAS wild-type protein, sequence (P01116 1-188 isoform P01116-2): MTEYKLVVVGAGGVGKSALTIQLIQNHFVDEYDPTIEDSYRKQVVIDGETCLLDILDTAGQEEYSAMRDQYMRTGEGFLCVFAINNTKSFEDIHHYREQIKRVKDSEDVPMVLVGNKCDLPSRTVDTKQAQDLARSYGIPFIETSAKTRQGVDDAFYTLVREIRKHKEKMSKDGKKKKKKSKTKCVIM

| Kd ([1]; 1:1 binding model) [nM] | IC50 ([2]; NCI-H441 cells, 4 days) [nM] | Kd ([1]; Single Cycle Kinetics) [nM] | Kd [1, 6] [nM] | IC50 [2, 7] [nM] | Compound | NRAS /KRAS [3, 4] | HRAS /KRAS (HRAS wild-type protein; [5]) | NRAS /KRAS [3, 8] | HRAS /KRAS (HRAS wild-type protein; [9]) |
| --- | --- | --- | --- | --- | --- | --- | --- | --- | --- |
| 0.31 | 48 |  |  |  | CCCO[C@H](C)[C@@H]1NC(=O)[C@H](COCC)N(C)C(=O)C[C@@H](C(=O)N(C)CC)N(C)C(=O)[C@H](C2CCCC2)N(C)C(=O)C2(CC(C)(C)C2)NC(=O)[C@@H]2C[C@H](C)CN2C(=O)[C@H](CCc2cc(F)c(C(F)(F)F)c(F)c2)NC(=O)CN(C)C(=O)[C@H](Cc2ccc(C)cc2)N2CC/C=C\C[C@@H](C2=O)N(C)C(=O)CN(C)C1=O [PP2426] | AA (a compound having 20 or more is denoted as AA) | A (a compound having 10 or more and less than 20 is denoted as A) |  |  |
|  | 14.5 | 0.19 |  |  | CCO[C@@H]1C[C@H]2C(=O)NC3(CC(C)(C)C3)C(=O)N(C)[C@@H](C3CCCC3)C(=O)N(C)[C@H](C(=O)N(C)C)CC(=O)N[C@@H](CC(C)C)C(=O)N[C@@H]([C@@H](C)CC)C(=O)N(C)CC(=O)N(C)[C@H]3C/C=C\CCN(C3=O)[C@@H](Cc3ccc(C(F)(F)F)cc3)C(=O)N(C)CC(=O)N[C@@H](CCc3ccc(C(F)(F)F)c(Cl)c3)C(=O)N2C1 [PP3452] | A (a compound having 10 or more and less than 20 is denoted as A) | A (a compound having 10 or more and less than 20 is denoted as A) |  |  |
|  | 48.7 | 2.6 |  |  | CC[C@H](C)[C@@H]1NC(=O)[C@H](CC(C)C)N(C)C(=O)C[C@@H](C(=O)N(C)C)N(C)C(=O)[C@H](C2CCCC2)N(C)C(=O)C2(CCCC2)NC(=O)[C@@H]2CCN2C(=O)[C@H](CCc2cc(F)c(C(F)(F)F)c(F)c2)NC(=O)CN(C)C(=O)[C@H](Cc2ccc(C)cc2)N2CC/C=C(/F)C[C@@H](C2=O)N(C)C(=O)CN(C)C1=O [PP3522] | B (a compound having 3 or more and less than 10 is denoted as B) | B (a compound having 3 or more and less than 10 is denoted as B) |  |  |
| 0.58 | 42.3 |  |  |  | CCCOC[C@H]1C(=O)N[C@@H]([C@@H](C)CC)C(=O)N(C)CC(=O)N(C)[C@H]2C/C=C\CCN(C2=O)[C@@H](CC2CCC(F)(F)CC2)C(=O)N(C)CC(=O)N[C@@H](CCc2cc(F)c(C(F)(F)F)c(F)c2)C(=O)N2C[C@H](OCC)C[C@H]2C(=O)NC2(CC(C)(C)C2)C(=O)N(C)[C@@H](C(CC)CC)C(=O)N(C)[C@H](C(=O)N(C)C)CC(=O)N1C [PP2472] | A (a compound having 10 or more and less than 20 is denoted as A) | A (a compound having 10 or more and less than 20 is denoted as A) |  |  |
|  | 115 | 3.1 |  |  | CCCO[C@@H]1C[C@H]2C(=O)NC3(CC(C)(C)C3)C(=O)N(C)[C@@H](C3CCCC3)C(=O)N(C)[C@H](C(=O)N(C)CC)CC(=O)N(C)[C@@H](COCC)C(=O)N[C@@H]([C@@H](C)CC)C(=O)N3C[C@@H](C)C[C@H]3C(=O)N(C)[C@H]3C/C=C\CCN(C3=O)[C@@H](Cc3ccc(C)cc3)C(=O)N(C)CC(=O)N[C@@H](CCc3cc(F)c(C(F)(F)F)c(F)c3)C(=O)N2C1 [PP3460] | A (a compound having 10 or more and less than 20 is denoted as A) | A (a compound having 10 or more and less than 20 is denoted as A) |  |  |
|  |  |  | 0.36 | 69 | CCC[C@H]1C(=O)N[C@@H]([C@@H](C)CC)C(=O)N(C)CC(=O)N(C)[C@H]2C/C=C\CCN(C2=O)[C@@H](Cc2ccc(C(F)(F)F)cc2)C(=O)N(C)CC(=O)N[C@@H](CCc2ccc3sccc3c2)C(=O)N2C[C@H](OCC)C[C@H]2C(=O)NC2(CCC2)C(=O)N(C)[C@@H](C2CCCC2)C(=O)N(C)[C@H](C(=O)N(C)C)CC(=O)N1C [PP1256] |  |  | A (a compound having 10 or more and less than 20 is denoted as A) | A (a compound having 10 or more and less than 20 is denoted as A) |
| 0.17 | 8.5 |  |  |  | CCC[C@H]1C(=O)N[C@@H]([C@@H](C)CC)C(=O)N(C)CC(=O)N(C)[C@H]2C/C=C\CCN(C2=O)[C@@H](Cc2ccc(C(F)(F)F)cc2)C(=O)N(C)CC(=O)N[C@@H](CCc2ccc(Cl)c(Cl)c2)C(=O)N2C[C@H](OCC)C[C@H]2C(=O)NC2(CC(C)(C)C2)C(=O)N(C)[C@@H](CC(C)(C)C)C(=O)N(C)[C@H](C(=O)N(C)C)CC(=O)N1C [PP2738] | AA (a compound having 20 or more is denoted as AA) | A (a compound having 10 or more and less than 20 is denoted as A) |  |  |
|  |  |  | 0.066 | 20.8 | CCO[C@@H]1C[C@H]2C(=O)NC3(CCCC3)C(=O)N(C)[C@@H](C3CCCC3)C(=O)N(C)[C@H](C(=O)N(C)C)CC(=O)N(C)[C@@H](CC)C(=O)N[C@@H]([C@@H](C)CC)C(=O)N(C)CC(=O)N(C)[C@H]3C/C=C\CCN(C3=O)[C@@H](Cc3ccc(C(F)(F)F)cc3)C(=O)N(C)CC(=O)N[C@@H](CCc3cc(F)c(C(F)(F)F)c(F)c3)C(=O)N2C1 [PP1276] |  |  | A (a compound having 10 or more and less than 20 is denoted as A) | B (a compound having 3 or more and less than 10 is denoted as B) |
|  | 73.5 | 0.75 |  |  | CCCO[C@@H]1C[C@H]2C(=O)NC3(CC(C)(C)C3)C(=O)N(C)[C@@H](C3CCCC3)C(=O)N(C)[C@H](C(=O)N(C)CC)CC(=O)N[C@@H](COCC)C(=O)N[C@@H]([C@@H](C)CC)C(=O)N3C[C@@H](F)C[C@H]3C(=O)N(C)[C@H]3C/C=C\CCN(C3=O)[C@@H](Cc3ccc(C)cc3)C(=O)N(C)CC(=O)N[C@@H](CCc3ccc(C(F)(F)F)c(OC)c3)C(=O)N2C1 [PP3443] | A (a compound having 10 or more and less than 20 is denoted as A) | A (a compound having 10 or more and less than 20 is denoted as A) |  |  |
|  |  |  | 0.082 | 4.2 | CC[C@H](C)[C@@H]1NC(=O)[C@H](CC2CCC2)N(C)C(=O)C[C@@H](C(=O)N(C)C)N(C)C(=O)[C@H](C2CCCC2)N(C)C(=O)C2(CCCC2)NC(=O)[C@@H]2CCCN2C(=O)[C@H](CCc2cc(F)c(C(F)(F)F)c(F)c2)NC(=O)CN(C)C(=O)[C@H](Cc2ccc(C(F)(F)F)cc2)N2C[C@H](C)CC[C@@H](C2=O)N(C)C(=O)CN(C)C1=O [PP1386] |  |  | B (a compound having 3 or more and less than 10 is denoted as B) | B (a compound having 3 or more and less than 10 is denoted as B) |
| 1.4 | 26 |  |  |  | CCOC[C@H]1C(=O)N[C@@H]([C@@H](C)CC)C(=O)N(C)CC(=O)N(C)[C@H]2C/C=C\CCN(C2=O)[C@@H](CC2CCCCC2)C(=O)N(C)CC(=O)N[C@@H](CCc2cc(F)c(C(F)(F)F)c(F)c2)C(=O)N2C[C@H](OCC)C[C@H]2C(=O)NC2(CC(C)(C)C2)C(=O)N(C)[C@@H](C(CC)CC)C(=O)N(C)[C@H](C(=O)N(C)C)CC(=O)N1C [PP2479] | AA (a compound having 20 or more is denoted as AA) | A (a compound having 10 or more and less than 20 is denoted as A) |  |  |
| 0.52 | 26 |  |  |  | CCC[C@H]1C(=O)N[C@@H]([C@@H](C)CC)C(=O)N(C)CC(=O)N(C)[C@H]2C/C=C\CCN(C2=O)[C@@H](Cc2ccc(C(F)(F)F)cc2)C(=O)N(C)CC(=O)N[C@@H](CCc2ccc(Cl)c(Cl)c2)C(=O)N2C[C@H](OCC)C[C@H]2C(=O)NC2(CC(C)(C)C2)C(=O)N(C)[C@@H](CC2CCC2)C(=O)N(C)[C@H](C(=O)N(C)C)CC(=O)N1C [PP2766] | A (a compound having 10 or more and less than 20 is denoted as A) | A (a compound having 10 or more and less than 20 is denoted as A) |  |  |
|  | 5 | 0.067 |  |  | CCC[C@H]1C(=O)N[C@@H]([C@@H](C)CC)C(=O)N(C)CC(=O)N(C)[C@H]2C/C=C\CCN(C2=O)[C@@H](Cc2ccc(C(F)(F)F)cc2)C(=O)N(C)CC(=O)N[C@@H](CCc2cc(F)c(C(F)(F)F)c(F)c2)C(=O)N2CC[C@H](OC)[C@H]2C(=O)N(C)C2(CCC2)C(=O)N(C)[C@@H](C2CCCC2)C(=O)N(C)[C@H](C(=O)N(C)C)CC(=O)N1C [PP3284] | A (a compound having 10 or more and less than 20 is denoted as A) | A (a compound having 10 or more and less than 20 is denoted as A) |  |  |
| 1.4 | 53 |  |  |  | CCC(CC)[C@H]1C(=O)N(C)[C@H](C(=O)N2CCCCC2)CC(=O)N(C)[C@@H](COC)C(=O)N[C@@H]([C@@H](C)CC)C(=O)N(C)CC(=O)N(C)[C@H]2C/C=C\CCN(C2=O)[C@@H](Cc2ccc(C(F)(F)F)cc2)C(=O)N(C)CC(=O)N[C@@H](CCc2cc(F)c(C(F)(F)F)c(F)c2)C(=O)N2C[C@H](OC(C)C)C[C@H]2C(=O)NC2(CC(C)(C)C2)C(=O)N1C [PP2608] | AA (a compound having 20 or more is denoted as AA) | A (a compound having 10 or more and less than 20 is denoted as A) |  |  |
| 1.5 | 82.7 |  |  |  | CCC(CC)[C@H]1C(=O)N(C)[C@H](C(=O)N(C)C)CC(=O)N(C)[C@@H](COC)C(=O)N[C@@H]([C@@H](C)CC)C(=O)N2CCC[C@H]2C(=O)N(C)[C@H]2C/C=C\CCN(C2=O)[C@@H](Cc2ccc(C(F)F)cc2)C(=O)N(C)CC(=O)N[C@@H](CCc2ccc(Cl)c(Cl)c2)C(=O)N2C[C@H](OC3CCCC3)C[C@H]2C(=O)NC2(CC(C)(C)C2)C(=O)N1C [PP2652] | AA (a compound having 20 or more is denoted as AA) | A (a compound having 10 or more and less than 20 is denoted as A) |  |  |
